Results as given in ChEMBL document CHEMBL1275453, “Resistance trends of the Bacteroides fragilis group over a 10-year period, 1997 to 2006, in Madrid, Spain” (2008).
In brackets after ≈: the same amount, converted by molar mass.

Tests used:
Assay type in all cases: functional
Phocaeicola vulgatus [1] = test: Antibacterial activity against Bacteroides vulgatus isolate by agar dilution method in presence of clavulanate
Bacteroides fragilis [2] = test: Antibacterial activity against Bacteroides fragilis isolate by agar dilution method in presence of clavulanate
[3] = system: Parabacteroides distasonis; test: Antibacterial activity against Bacteroides distasonis assessed as percent resistant isolates by agar dilution method in presence of clavulanate
Bacteroides sp. [4] = test: Antibacterial activity against Bacteroides spp. assessed as percent resistant isolates by agar dilution method in presence of clavulanate; settings: pooled result: one value given for 4 cell lines, strains, targets or settings
[5] = system: Bacteroides thetaiotaomicron; test: Antibacterial activity against Bacteroides thetaiotaomicron isolate by agar dilution method in presence of clavulanate
[6] = system: Bacteroides thetaiotaomicron; test: Antibacterial activity against Bacteroides thetaiotaomicron assessed as percent resistant isolates by agar dilution me in presence of clavulanate thod
Bacteroides ovatus [7] = test: Antibacterial activity against Bacteroides ovatus isolate by agar dilution method in presence of clavulanate
Parabacteroides merdae [8] = test: Antibacterial activity against Bacteroides merdae isolate by agar dilution method in presence of clavulanate
Bacteroides caccae [9] = test: Antibacterial activity against Bacteroides caccae assessed as percent resistant isolates by agar dilution method in presence of clavulanate
Bacteroides uniformis [10] = test: Antibacterial activity against Bacteroides uniformis assessed as percent resistant isolates by agar dilution method in presence of clavulanate
Bacteroides uniformis [11] = test: Antibacterial activity against Bacteroides uniformis isolate by agar dilution method in presence of clavulanate
Bacteroides ovatus [12] = test: Antibacterial activity against Bacteroides ovatus assessed as percent resistant isolates by agar dilution method in presence of clavulanate
[13] = system: Parabacteroides distasonis; test: Antibacterial activity against Bacteroides distasonis isolate by agar dilution method in presence of clavulanate
Bacteroides sp. [14] = test: Antibacterial activity against Bacteroides spp. isolate by agar dilution method in presence of clavulanate
Bacteroides fragilis [15] = test: Antibacterial activity against Bacteroides fragilis assessed as percent resistant isolates by agar dilution method in presence of clavulanate
Bacteroides caccae [16] = test: Antibacterial activity against Bacteroides caccae isolate by agar dilution method in presence of clavulanate
Bacteroides stercoris [17] = test: Antibacterial activity against Bacteroides stercoris isolate by agar dilution method in presence of clavulanate
Bacteroides eggerthii [18] = test: Antibacterial activity against Bacteroides eggerthii isolate by agar dilution method in presence of clavulanate
Phocaeicola vulgatus [19] = test: Antibacterial activity against Bacteroides vulgatus assessed as percent resistant isolates by agar dilution method in presence of clavulanate
[20] = system: Bacteroides thetaiotaomicron; test: Antibacterial activity against Bacteroides thetaiotaomicron isolate by agar dilution method
Bacteroides uniformis [21] = test: Antibacterial activity against Bacteroides uniformis isolate by agar dilution method
Bacteroides ovatus [22] = test: Antibacterial activity against Bacteroides ovatus assessed as percent resistant isolates by agar dilution method
Bacteroides ovatus [23] = test: Antibacterial activity against Bacteroides ovatus isolate by agar dilution method
[24] = system: Parabacteroides distasonis; test: Antibacterial activity against Bacteroides distasonis isolate by agar dilution method
Bacteroides uniformis [25] = test: Antibacterial activity against Bacteroides uniformis assessed as percent resistant isolates by agar dilution method
Bacteroides eggerthii [26] = test: Antibacterial activity against Bacteroides eggerthii isolate by agar dilution method
Bacteroides caccae [27] = test: Antibacterial activity against Bacteroides caccae isolate by agar dilution method
Parabacteroides merdae [28] = test: Antibacterial activity against Bacteroides merdae isolate by agar dilution method
Bacteroides sp. [29] = test: Antibacterial activity against Bacteroides spp. isolate by agar dilution method
[30] = system: Parabacteroides distasonis; test: Antibacterial activity against Bacteroides distasonis assessed as percent resistant isolates by agar dilution method
Bacteroides stercoris [31] = test: Antibacterial activity against Bacteroides stercoris isolate by agar dilution method
[32] = system: Bacteroides thetaiotaomicron; test: Antibacterial activity against Bacteroides thetaiotaomicron assessed as percent resistant isolates by agar dilution method
Bacteroides fragilis [33] = test: Antibacterial activity against Bacteroides fragilis isolate by agar dilution method
Bacteroides fragilis [34] = test: Antibacterial activity against Bacteroides fragilis assessed as percent resistant isolates by agar dilution method
Phocaeicola vulgatus [35] = test: Antibacterial activity against Bacteroides vulgatus assessed as percent resistant isolates by agar dilution method
Bacteroides stercoris [36] = test: Antibacterial activity against Bacteroides stercoris assessed as percent resistant isolates by agar dilution method; settings: pooled result: one value given for 4 cell lines, strains, targets or settings
Phocaeicola vulgatus [37] = test: Antibacterial activity against Bacteroides vulgatus isolate by agar dilution method
Bacteroides caccae [38] = test: Antibacterial activity against Bacteroides caccae assessed as percent resistant isolates by agar dilution method

CC1(C)S[C@@H]2[C@H](NC(=O)[C@H](N)c3ccc(O)cc3)C(=O)N2[C@H]1C(=O)O [AMOXICILLIN]
MIC50 (Phocaeicola vulgatus [1]): 2 µg/mL | MIC90 (Phocaeicola vulgatus [1]): 16 µg/mL | MIC50 (Bacteroides fragilis [2]): 1 µg/mL | MIC90 (Bacteroides fragilis [2]): 8 µg/mL | Activity [3]: 16.3% | Activity (Bacteroides sp. [4]): 19.6% | MIC50 [5]: 2 µg/mL | MIC90 [5]: 16 µg/mL | Activity [6]: 4.9% | MIC50 (Bacteroides ovatus [7]): 1 µg/mL | MIC90 (Bacteroides ovatus [7]): 16 µg/mL | MIC50 (Parabacteroides merdae [8]): 2 µg/mL | MIC90 (Parabacteroides merdae [8]): 16 µg/mL | Activity (Bacteroides caccae [9]): 20% | Activity (Bacteroides uniformis [10]): 12.3% | MIC50 (Bacteroides uniformis [11]): 1 µg/mL | MIC90 (Bacteroides uniformis [11]): 16 µg/mL | Activity (Bacteroides ovatus [12]): 17.1% | MIC50 [13]: 4 µg/mL | MIC90 [13]: 16 µg/mL | MIC50 (Bacteroides sp. [14]): 2 µg/mL | MIC90 (Bacteroides sp. [14]): 16 µg/mL | Activity (Bacteroides fragilis [15]): 6.2% | MIC50 (Bacteroides caccae [16]): 2 µg/mL | MIC90 (Bacteroides caccae [16]): 16 µg/mL | MIC50 (Bacteroides stercoris [17]): 2 µg/mL | MIC90 (Bacteroides stercoris [17]): 16 µg/mL | MIC50 (Bacteroides eggerthii [18]): 2 µg/mL | MIC90 (Bacteroides eggerthii [18]): 16 µg/mL | Activity (Phocaeicola vulgatus [19]): 21.3%

Cc1ncc([N+](=O)[O-])n1CCO [METRONIDAZOLE]
MIC50 [20]: 1 µg/mL (≈ 5.84 µM) | MIC90 [20]: 2 µg/mL (≈ 11.7 µM) | MIC50 (Bacteroides uniformis [21]): 1 µg/mL (≈ 5.84 µM) | MIC90 (Bacteroides uniformis [21]): 2 µg/mL (≈ 11.7 µM) | Activity (Bacteroides ovatus [22]): 0% | MIC50 (Bacteroides ovatus [23]): 1 µg/mL (≈ 5.84 µM) | MIC90 (Bacteroides ovatus [23]): 2 µg/mL (≈ 11.7 µM) | MIC50 [24]: 1 µg/mL (≈ 5.84 µM) | MIC90 [24]: 2 µg/mL (≈ 11.7 µM) | Activity (Bacteroides uniformis [25]): 0% | MIC50 (Bacteroides eggerthii [26]): 0.5 µg/mL (≈ 2.92 µM) | MIC90 (Bacteroides eggerthii [26]): 2 µg/mL (≈ 11.7 µM) | MIC50 (Bacteroides caccae [27]): 1 µg/mL (≈ 5.84 µM) | MIC90 (Bacteroides caccae [27]): 2 µg/mL (≈ 11.7 µM) | MIC50 (Parabacteroides merdae [28]): 0.5 µg/mL (≈ 2.92 µM) | MIC90 (Parabacteroides merdae [28]): 2 µg/mL (≈ 11.7 µM) | MIC50 (Bacteroides sp. [29]): 0.5 µg/mL (≈ 2.92 µM) | MIC90 (Bacteroides sp. [29]): 2 µg/mL (≈ 11.7 µM) | Activity [30]: 0% | MIC50 (Bacteroides stercoris [31]): 0.5 µg/mL (≈ 2.92 µM) | MIC90 (Bacteroides stercoris [31]): 2 µg/mL (≈ 11.7 µM) | Activity [32]: 0% | MIC50 (Bacteroides fragilis [33]): 1 µg/mL (≈ 5.84 µM) | MIC90 (Bacteroides fragilis [33]): 2 µg/mL (≈ 11.7 µM) | Activity (Bacteroides fragilis [34]): 0% | Activity (Phocaeicola vulgatus [35]): 0% | Activity (Bacteroides stercoris [36]): 0% | MIC50 (Phocaeicola vulgatus [37]): 1 µg/mL (≈ 5.84 µM) | MIC90 (Phocaeicola vulgatus [37]): 2 µg/mL (≈ 11.7 µM) | Activity (Bacteroides caccae [38]): 0%
